{
  "source": "patent US12173137B2",
  "about": "“Functionalized high-oleic soybean oil wax and emulsion for post-harvest treatment of fresh fruit” (Iowa State University Research Foundation, Inc., priority 2020, dated 2024)",
  "format_in_all_cases": "physicochemical",
  "key": {"[1]": {"assay": "Differential scanning calorimetry of wax materials", "conditions": "for Relative Crystallinity: 290 J/g for a 100% crystalline material; for Enthalpy of Melting: DSC, heating to 100° C. at 10° C./min", "method": "Melting profile of wax materials was analyzed with a DSC 250 Discovery (TA Instruments, New Castle, Del.) calorimeter using the methodology by Donhowe and Fennema (1993). Wax samples (approximately 10 mg) were first heated to 100° C. at a rate of 200° C./min, held for 3 min, cooled to 25° C. at a rate of 20° C./min and equilibrated for 3 min. Actual test ramp was then performed by heating to 100° C. at a rate of 10° C./min. Melting point ranges were calculated from the average of three samples from each material."}, "[2]": {"assay": "Hardness of wax materials (penetrometer, ASTM D1321)", "conditions": "reciprocal of needle penetration distance, room temperature", "method": "(§1) Hardness, defined as a measure of resistance to local deformation, was measured using a H-1200 Universal Penetrometer (Humboldt Mfg. Co., Raleigh, NC) following ASTM D1321 standard. Ten grams of molten material were cast in a 5 cm diameter by 3 cm tall hollow polyvinyl chloride plastic mold. Material was allowed to fully cool and equilibrate to room temperature for at least 6 hours prior to testing. The distance traveled by penetrometer needle (mm) into the wax disc was recorded as the hardness (mm^−1) after taking the reciprocal value. Cohesiveness, defined as the strength of a material due to interatomic or intermolecular forces, was measured as per previous methodology (Fei et al., “Synthesis and Characterization of Soybean Oil-Based Waxes and Their Application as Paraffin Substitute for Corrugated Coating,” J. Ind. Eng. Chem. 58:113-122 (2018), which is hereby incorporated by reference in its entirety) by a three-point bend test using a TA.XTPlus Texture Analyzer (Stable Micro Systems, So. Hamilton, MA) with a TA-92N probe on a 4 mm-thick cast wax sample, made by casting 2.2-2.8 g of molten material in a small hexagonal weighing boat, and allowing samples to cool to r.t. for at least 2 hours. Hexagonal samples were then sanded down flat to a uniform mass with a fine grit sanding sponge taking care to remove concave and convex regions. Test was performed by placing sample between two vertical support bars 12 mm apart and driving the blunt blade normal to the sample at 0.5 mm/s to a trigger distance of 3 mm. The area under curve was acquired from a distance at 0 mm to the peak positive force, and the average of three tests for each material was recorded as the cohesiveness (g mm) of the material."}, "[3]": {"assay": "Cohesiveness of wax materials (three-point bend test)", "conditions": "area under curve to peak force, 4 mm-thick cast sample", "method": "as §1"}},
  "note": "Marks after values point to notes of the source that are not given here.",
  "data": [
    {"compound": "CCCCCC[C@@H](O)CCCCCCCCCCC(=O)O", "note": "[Compound 6, (R)-12-hydroxyoctadecanoic acid, reference compound]", "values": [
      {"measurement": "Relative Crystallinity", "setting": "[1]", "value": "51.2 ± 1.0^ab %"},
      {"measurement": "Enthalpy of Melting", "setting": "[1]", "value": "148.4 ± 3.1", "unit": "J/g"},
      {"measurement": "Hardness", "setting": "[2]", "value": "2.22 ± 0.04^c mm^−1"},
      {"measurement": "Cohesiveness", "setting": "[3]", "value": "1443 ± 30^c g mm"}
    ]},
    {"compound": "CCCCCCC(=O)CCCCCCCCCCC(=O)O", "note": "[Compound 7, 12-Oxooctadecanoic Acid]", "values": [
      {"measurement": "Relative Crystallinity", "setting": "[1]", "value": "42.8 ± 10.1", "unit": "%"},
      {"measurement": "Enthalpy of Melting", "setting": "[1]", "value": "124.3 ± 29.4", "unit": "J/g"},
      {"measurement": "Hardness", "setting": "[2]", "value": "0.63 ± 0.08", "unit": "mm^−1"},
      {"measurement": "Cohesiveness", "setting": "[3]", "value": "360 ± 34", "unit": "g mm"}
    ]},
    {"compound": "CCCCCCC(=O)CCCCCCCCCCC(=O)OCC(COC(=O)CCCCCCCCCCC(=O)CCCCCC)OC(=O)CCCCCCCCCCC(=O)CCCCCC", "note": "[Compound 8, Propane-1,2,3-triyl tris(12-oxooctadecanoate)]", "values": [
      {"measurement": "Relative Crystallinity", "setting": "[1]", "value": "43.7 ± 0.7^ %"},
      {"measurement": "Enthalpy of Melting", "setting": "[1]", "value": "126.8 ± 2.0", "unit": "J/g"},
      {"measurement": "Hardness", "setting": "[2]", "value": "0.50 ± 0.09", "unit": "mm^−1"},
      {"measurement": "Cohesiveness", "setting": "[3]", "value": "203 ± 49", "unit": "g mm"}
    ]},
    {"compound": "Mixture of 9-Hydroxyoctadecanoic (4a) and 10-Hydroxyoctadecanoic Acid (4b) [Compound 4a-b]", "values": [
      {"measurement": "Relative Crystallinity", "setting": "[1]", "value": "6.3 ± 0.4^f %"},
      {"measurement": "Enthalpy of Melting", "setting": "[1]", "value": "18.3 ± 0.1", "unit": "J/g"},
      {"measurement": "Hardness", "setting": "[2]", "value": "0.30 ± 0.02^e mm^−1"},
      {"measurement": "Cohesiveness", "setting": "[3]", "value": "95 ± 1", "unit": "g mm"}
    ]},
    {"compound": "Triacylglyceride of Regioisomeric Hydroxyoctadecanoic Acid [Compound 3]", "values": [
      {"measurement": "Relative Crystallinity", "setting": "[1]", "value": "12.9 ± 1.5^ef %"},
      {"measurement": "Enthalpy of Melting", "setting": "[1]", "value": "37.3 ± 4.3", "unit": "J/g"},
      {"measurement": "Hardness", "setting": "[2]", "value": "0.68 ± 0.05", "unit": "mm^−1"},
      {"measurement": "Cohesiveness", "setting": "[3]", "value": "113 ± 13", "unit": "g mm"}
    ]}
  ]
}
